Reference: US20050181473A1, “Bacterial adpglucose pyrophospatase method for obtaining the latter and its use in the production of assay devices and in the obtention of transgenic plants and bacteria” (priority 2001, published 2005)
Entries after “also recorded” stand apart in the source; their conditions may differ.

Molecular target: bacterial AGPPase (Escherichia coli, UniProt Q93K97, L2V/N6S)
Assay type: biochemical
Conditions: not given

Chain of bacterial AGPPase (Q93K97 whole entry L2V/N6S, looked up): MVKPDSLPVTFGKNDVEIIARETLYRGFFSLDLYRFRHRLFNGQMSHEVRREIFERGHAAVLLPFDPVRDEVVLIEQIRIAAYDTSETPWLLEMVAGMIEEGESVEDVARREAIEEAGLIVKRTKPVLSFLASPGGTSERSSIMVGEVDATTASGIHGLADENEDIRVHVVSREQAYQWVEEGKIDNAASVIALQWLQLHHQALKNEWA

| SMILES | inhibition of AGPPase | AGPPase activity affected by reducing and chelating agents | requirement for optimum functioning of AGPPase |
| --- | --- | --- | --- |
| O=C(O)[C@H](O)COP(=O)(O)O [3-phosphoglycerate] | Inhibited | – | – |
| Nc1ncnc2c1ncn2[C@@H]1O[C@H](COP(=O)(O)OP(=O)(O)O)[C@@H](O)[C@H]1O [ADP] | Inhibited | – | – |
| Nc1ncnc2c1ncn2[C@@H]1O[C@H](COP(=O)(O)O)[C@@H](O)[C@H]1O [AMP] | Inhibited | – | – |
| Nc1ncnc2c1ncn2[C@@H]1O[C@H](COP(=O)(O)OP(=O)(O)OP(=O)(O)O)[C@@H](O)[C@H]1O [ATP] | Inhibited | – | – |
| O=C(O)CN(CCN(CC(=O)O)CC(=O)O)CC(=O)O [EDTA] | – | adversely affected | – |
| N[C@@H](CCC(=O)O)C(=O)O [glutamate] | – | adversely affected | – |
| O=P(O)(O)OP(=O)(O)O [inorganic pyrophosphate] | Inhibited | – | – |
| [Mg+2] [magnesium] | – | – | requires |
| [O]=[Mo](=[O])([O-])[O-] [molybdate] | strongly inhibited; also recorded: Inhibited strongly | – | – |
| O=P(O)(O)O [orthophosphate] | not | – | – |
| N[C@@H](CS)C(=O)O [reduced cysteine] | – | adversely affected | – |
| N[C@@H](CCC(=O)N[C@@H](CS)C(=O)NCC(=O)O)C(=O)O [reduced glutathione] | – | adversely affected | – |
| OCCS [β-mercaptoethanol] | – | adversely affected | – |

Same assay, conditions: 37° C., Tris-HCl 50 mM pH 7.5, 5 mM MgCl2

| SMILES | hydrolysis / recognition as substrate by AGPPase |
| --- | --- |
| Nc1ncnc2c1ncn2[C@@H]1O[C@@H]2COP(=O)(O)O[C@H]2[C@H]1O [cyclic AMP] | Nor does it hydrolyze |

Same assay, conditions: pH 7.5

| SMILES | hydrolysis / recognition as substrate by AGPPase |
| --- | --- |
| O=C(O)[C@H](O)COP(=O)(O)O [3-phosphoglycerate] | does not hydrolyze |
| Nc1ncnc2c1ncn2[C@@H]1O[C@H](COP(=O)(O)OP(=O)(O)O[C@H]2O[C@H](CO)[C@@H](O)[C@H](O)[C@H]2O)[C@@H](O)[C@H]1O [ADPG, ADPglucose] | catalyzes the hydrolysis |
| Nc1ncnc2c1ncn2[C@@H]1O[C@H](COP(=O)(O)OP(=O)(O)O[C@H]2O[C@H](CO)[C@@H](O)[C@H](O)[C@@H]2O)[C@@H](O)[C@H]1O [ADPmannose] | recognizes; also recorded: hydrolyzes |
| Nc1ncnc2c1ncn2[C@@H]1O[C@H](COP(=O)(O)OP(=O)(O)OC[C@H]2OC(O)[C@H](O)[C@@H]2O)[C@@H](O)[C@H]1O (stereo partly drawn) [ADPribose] | recognizes; also recorded: hydrolyzes |
| Nc1ncnc2c1ncn2[C@@H]1O[C@H](COP(=O)(O)O)[C@@H](O)[C@H]1O [AMP] | does not hydrolyze |
| O=P(O)(O)O[C@H]1O[C@H](CO)[C@@H](O)[C@H](O)[C@H]1O [G1P, glucose-1-phosphate] | does not hydrolyze |
| O=C[C@H](O)[C@@H](O)[C@H](O)[C@H](O)COP(=O)(O)O [G6P, glucose-6-phosphate] | does not hydrolyze |
| Nc1nc2c(ncn2[C@@H]2O[C@H](COP(=O)(O)OP(=O)(O)O[C@H]3O[C@H](CO)[C@@H](O)[C@H](O)[C@@H]3O)[C@@H](O)[C@H]2O)c(=O)[nH]1 [GDPmannose] | does not recognize |
| O=C(O)[C@H]1O[C@H](OP(=O)(O)OP(=O)(O)OC[C@H]2O[C@@H](n3ccc(=O)[nH]c3=O)[C@H](O)[C@@H]2O)[C@H](O)[C@@H](O)[C@@H]1O [UDPglucuronic] | does not recognize |
| O=[N+]([O-])c1ccc(OP(=O)(O)Oc2ccc([N+](=O)[O-])cc2)cc1 [bis-paranitrophenyl-phosphate] | does not hydrolyze |
